According to PubChem BioAssay (NCI):
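Cultured in 96-well plates, cells were exposed to test compound for 48 hours across five concentrations. TGI: total growth inhibition.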

Columns and labels:
Assay in all cases: NCI anticancer screen, dose series, 48 h
786-0 renal = tested on: 786-0 renal
A498 renal = tested on: A498 renal
A549 NSCLC = tested on: A549 NSCLC
ACHN renal = tested on: ACHN renal
BT-549 breast = tested on: BT-549 breast
CAKI-1 renal = tested on: CAKI-1 renal
CCRF-CEM leukemia = tested on: CCRF-CEM leukemia
COLO 205 colon = tested on: COLO 205 colon
DU-145 prostate = tested on: DU-145 prostate
EKVX NSCLC = tested on: EKVX NSCLC
HCC-2998 colon = tested on: HCC-2998 colon
HCT-116 colon = tested on: HCT-116 colon
HCT-15 colon = tested on: HCT-15 colon
HL-60(TB) leukemia = tested on: HL-60(TB) leukemia
HOP-62 NSCLC = tested on: HOP-62 NSCLC
HS 578T breast = tested on: HS 578T breast
HT29 colon = tested on: HT29 colon
IGROV1 ovarian = tested on: IGROV1 ovarian
K-562 leukemia = tested on: K-562 leukemia
KM12 colon = tested on: KM12 colon
LOX IMVI melanoma = tested on: LOX IMVI melanoma
M14 melanoma = tested on: M14 melanoma
MALME-3M melanoma = tested on: MALME-3M melanoma
MCF7 breast = tested on: MCF7 breast
MDA-MB-231 breast = tested on: MDA-MB-231 breast
MDA-MB-435 = tested on: MDA-MB-435
MDA-N = tested on: MDA-N
MOLT-4 leukemia = tested on: MOLT-4 leukemia
NCI-H226 lung = tested on: NCI-H226 lung
NCI-H23 lung = tested on: NCI-H23 lung
NCI-H460 lung = tested on: NCI-H460 lung
NCI-H522 lung = tested on: NCI-H522 lung
NCI/ADR-RES ovarian = tested on: NCI/ADR-RES ovarian
OVCAR-3 ovarian = tested on: OVCAR-3 ovarian
OVCAR-4 ovarian = tested on: OVCAR-4 ovarian
OVCAR-5 ovarian = tested on: OVCAR-5 ovarian
OVCAR-8 ovarian = tested on: OVCAR-8 ovarian
PC-3 prostate = tested on: PC-3 prostate
RPMI-8226 leukemia = tested on: RPMI-8226 leukemia
RXF 393 renal = tested on: RXF 393 renal
SF-268 CNS = tested on: SF-268 CNS
SF-295 CNS = tested on: SF-295 CNS
SF-539 CNS = tested on: SF-539 CNS
SK-MEL-2 melanoma = tested on: SK-MEL-2 melanoma
SK-MEL-28 melanoma = tested on: SK-MEL-28 melanoma
SK-OV-3 ovarian = tested on: SK-OV-3 ovarian
SN12C renal = tested on: SN12C renal
SNB-19 CNS = tested on: SNB-19 CNS
SNB-75 CNS = tested on: SNB-75 CNS
SW-620 colon = tested on: SW-620 colon
T-47D breast = tested on: T-47D breast
TK-10 renal = tested on: TK-10 renal
U251 CNS = tested on: U251 CNS
UACC-257 melanoma = tested on: UACC-257 melanoma
UACC-62 melanoma = tested on: UACC-62 melanoma
HOP-92 NSCLC = tested on: HOP-92 NSCLC
SK-MEL-5 melanoma = tested on: SK-MEL-5 melanoma
UO-31 renal = tested on: UO-31 renal

Measured: TGI

CCO/C(O)=C(/C(=N)N1CCOCC1)C(=O)Nc1cccc(Cl)c1
not listed: HOP-92 NSCLC | SK-MEL-5 melanoma | UO-31 renal
> 100 µM: all other assays above

COC1OC(Cn2c(C)nc(Br)c2Br)C(O)C(O)C1O (stereo not drawn)
not listed: HL-60(TB) leukemia | LOX IMVI melanoma | NCI-H226 lung | SF-268 CNS | SF-539 CNS | SN12C renal | TK-10 renal
> 100 µM: all other assays above

CC(=O)O[C@H](C[C@@H](C)[C@H]1C(=O)[C@H](O)[C@@]2(C)C3CC[C@H]4C(C)(C)[C@@H](OC5OCC(O)C(O)C5O)CC[C@@]45C[C@@]35CC[C@]12C)[C@@H]1OC1(C)C (stereo partly drawn)
26.1 µM: SNB-75 CNS
33.3 µM: CAKI-1 renal
64.5 µM: OVCAR-4 ovarian
94.5 µM: M14 melanoma
30.2 µM: 786-0 renal
63.6 µM: T-47D breast
22.6 µM: HL-60(TB) leukemia
32.4 µM: MALME-3M melanoma
30.6 µM: HOP-92 NSCLC | NCI-H460 lung
29.7 µM: IGROV1 ovarian | SK-MEL-5 melanoma
53.8 µM: KM12 colon
61.3 µM: COLO 205 colon
31.1 µM: HOP-62 NSCLC
7.18 µM: OVCAR-3 ovarian
33.6 µM: SF-295 CNS
29.5 µM: SK-MEL-2 melanoma
36.2 µM: MDA-MB-435
44.3 µM: EKVX NSCLC
29.3 µM: A498 renal
26.4 µM: RPMI-8226 leukemia | SK-OV-3 ovarian
54.7 µM: UO-31 renal
51.4 µM: BT-549 breast
15.3 µM: K-562 leukemia
29.8 µM: HCC-2998 colon | SF-539 CNS | TK-10 renal
34.1 µM: RXF 393 renal
46.7 µM: SF-268 CNS
33.8 µM: NCI-H522 lung
30.4 µM: PC-3 prostate
37.7 µM: DU-145 prostate
29.9 µM: U251 CNS
34.7 µM: MDA-MB-231 breast
27 µM: UACC-62 melanoma
38 µM: HCT-116 colon
32 µM: OVCAR-5 ovarian
33.2 µM: NCI-H226 lung
65.4 µM: SNB-19 CNS
55.4 µM: HCT-15 colon | NCI-H23 lung
34.8 µM: MCF7 breast | UACC-257 melanoma
35.7 µM: SN12C renal
41.3 µM: OVCAR-8 ovarian
44.7 µM: SK-MEL-28 melanoma
29.4 µM: ACHN renal
40.2 µM: MDA-N
not listed: MOLT-4 leukemia
> 100 µM: all other assays above
